Measured values reported in the NIST ThermoML archive (doi:10.1021/acs.jced.6b00455).

Assay: mn = molality of the nth substance listed, in mol/kg
Settings: 101 kPa, Liquid, Alternating current cell with electrodes

C[N+](C)(C)CCO.O=C([O-])C(F)(F)C(F)(F)C(F)(F)C(F)(F)C(F)(F)F [(2-hydroxyethyl)trimethylammonium perfluorohexanoate] + O
Settings | electrical conductivity [S/m]
293.15 K, m1 = 0.000375 | 0.0022
293.15 K, m1 = 0.000696 | 0.0041
293.15 K, m1 = 0.001138 | 0.0071
293.15 K, m1 = 0.001477 | 0.0092
293.15 K, m1 = 0.001847 | 0.0114
293.15 K, m1 = 0.002373 | 0.0146
293.15 K, m1 = 0.00271 | 0.0166
293.15 K, m1 = 0.003146 | 0.0191
293.15 K, m1 = 0.003565 | 0.0215
293.15 K, m1 = 0.003898 | 0.0234
293.15 K, m1 = 0.004204 | 0.0251
293.15 K, m1 = 0.004601 | 0.0273
293.15 K, m1 = 0.00507 | 0.03
293.15 K, m1 = 0.00539 | 0.0318
293.15 K, m1 = 0.005815 | 0.034
293.15 K, m1 = 0.006239 | 0.0364
293.15 K, m1 = 0.00662 | 0.0384
293.15 K, m1 = 0.007072 | 0.0408
293.15 K, m1 = 0.007377 | 0.0425
293.15 K, m1 = 0.007726 | 0.0443
293.15 K, m1 = 0.008233 | 0.047
293.15 K, m1 = 0.008702 | 0.0493
293.15 K, m1 = 0.009174 | 0.0517
293.15 K, m1 = 0.009518 | 0.0535
293.15 K, m1 = 0.009916 | 0.0557
293.15 K, m1 = 0.01043 | 0.0585
293.15 K, m1 = 0.01075 | 0.0607
293.15 K, m1 = 0.01135 | 0.0637
293.15 K, m1 = 0.01181 | 0.0666
293.15 K, m1 = 0.01223 | 0.0687
298.15 K, m1 = 0.00055 | 0.0043
298.15 K, m1 = 0.001005 | 0.0076
298.15 K, m1 = 0.001703 | 0.0126
298.15 K, m1 = 0.002219 | 0.0163
298.15 K, m1 = 0.002829 | 0.0204
298.15 K, m1 = 0.003309 | 0.0241
298.15 K, m1 = 0.003767 | 0.0269
298.15 K, m1 = 0.00423 | 0.0305
298.15 K, m1 = 0.004871 | 0.0338
298.15 K, m1 = 0.005471 | 0.0376
298.15 K, m1 = 0.005971 | 0.0408
298.15 K, m1 = 0.006435 | 0.0436
298.15 K, m1 = 0.007097 | 0.0477
298.15 K, m1 = 0.007791 | 0.0519
298.15 K, m1 = 0.008432 | 0.0557
298.15 K, m1 = 0.008992 | 0.0589
298.15 K, m1 = 0.009929 | 0.0652
298.15 K, m1 = 0.01068 | 0.0683
298.15 K, m1 = 0.0118 | 0.0747
298.15 K, m1 = 0.01243 | 0.0781
298.15 K, m1 = 0.01316 | 0.0821
298.15 K, m1 = 0.01446 | 0.0892
303.15 K, m1 = 0.000466 | 0.0041
303.15 K, m1 = 0.000808 | 0.0072
303.15 K, m1 = 0.001191 | 0.0104
303.15 K, m1 = 0.001576 | 0.0137
303.15 K, m1 = 0.002245 | 0.0181
303.15 K, m1 = 0.002642 | 0.0212
303.15 K, m1 = 0.00302 | 0.0242
303.15 K, m1 = 0.003455 | 0.0274
303.15 K, m1 = 0.003946 | 0.0311
303.15 K, m1 = 0.004412 | 0.0342
303.15 K, m1 = 0.004852 | 0.0375
303.15 K, m1 = 0.00528 | 0.0407
303.15 K, m1 = 0.005774 | 0.0442
303.15 K, m1 = 0.006137 | 0.0465
303.15 K, m1 = 0.006412 | 0.0486
303.15 K, m1 = 0.006786 | 0.0514
303.15 K, m1 = 0.00737 | 0.0557
303.15 K, m1 = 0.007781 | 0.0587
303.15 K, m1 = 0.008049 | 0.0605
